Reference: US20120020915A1, “Compounds and Methods for Treating Cancer and Diseases of the Central Nervous System” (QUEENS UNIVERSITY AT KINGSTON, priority 2007, published 2012)
Counter-ions that a name gives are not always drawn. Like-named read-outs stand apart in the source and are kept apart here.

How the values were obtained:
HO-2 (rat brain) = target: T1, HO-2 (rat brain) (Rattus norvegicus, UniProt P23711); assay: HO enzymatic activity, rat brain microsomal fraction (CO formation from methemalbumin); assay type: biochemical
T1 construct: brain microsomes were used as a source of HO-2; from tissue; host or cells: brain microsomal fraction of adult male Sprague-Dawley rats
T1 sequence (P23711 1-315): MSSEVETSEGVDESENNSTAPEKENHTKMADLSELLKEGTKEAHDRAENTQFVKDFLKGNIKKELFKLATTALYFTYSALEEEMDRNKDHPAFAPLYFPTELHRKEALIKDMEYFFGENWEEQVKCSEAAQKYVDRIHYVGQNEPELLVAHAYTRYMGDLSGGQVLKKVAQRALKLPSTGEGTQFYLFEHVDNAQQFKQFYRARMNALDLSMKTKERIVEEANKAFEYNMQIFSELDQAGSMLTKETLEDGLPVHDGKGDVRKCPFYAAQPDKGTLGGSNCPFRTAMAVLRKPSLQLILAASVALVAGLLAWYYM
Protocol: (§1) Incubations for HO activity analysis were done under conditions for which the rate of CO formation (pmol CO×min^−1×mg protein^−1) was linear with respect to time and microsomal protein concentration. Briefly, reaction mixtures (150 μL) consisting of 100 mM phosphate buffer (pH 7.4), 50 μM methemalbumin, and 1 mg/mL protein were pre-incubated with the inhibitors at final concentrations ranging from 0.1-100 μM for 10 minutes at 37° C. Reactions were initiated by adding NADPH at a final concentration of 1 mM and incubations were performed for an additional 15 minutes at 37° C.
(§2) Incubations for HO activity analysis were done under conditions for which the rate of CO formation (pmol CO/mg protein/minute) was linear with respect to time and microsomal protein concentration. Briefly, reaction mixtures (150 μL) consisting of 100 mM phosphate buffer (pH 7.4), 50 μM methemalbumin and 1 mg/mL protein were pre-incubated with the vehicle (ethanol or water in which the inhibitors were dissolved), or inhibitors at final concentrations ranging from 0.1-1000 μM for 10 minutes at 37° C. Reactions were initiated by adding β-NADPH at a final concentration of 1 mM and incubations were carried out for an additional 15 minutes at 37° C. Reactions were stopped by instantly freezing the reaction mixture on pulverized dry ice and CO formation was measured by gas chromatography using a TA 3000R Process Gas Analyzer (Trace Analytical/Ametek, Newark, Del., USA).
(§3) The values on the abscissa represent the decimal logarithm of the inhibitor's concentration (in μM), whereas the values of the activity on the ordinate are expressed as a percentage of the control experiments without inhibitor.
(§4) The IC50 values for the replicate experiments were employed to generate the reported standard deviation value.

HO-1 (rat spleen) = target: T2, HO-1 (rat spleen) (Rattus norvegicus, UniProt P06762); assay: HO enzymatic activity, rat spleen microsomal fraction (CO formation from methemalbumin); assay type: biochemical
T2 construct: Spleen microsomes were used as a source of HO-1; from tissue; host or cells: spleen microsomal fraction of adult male Sprague-Dawley rats
T2 sequence (P06762 1-289): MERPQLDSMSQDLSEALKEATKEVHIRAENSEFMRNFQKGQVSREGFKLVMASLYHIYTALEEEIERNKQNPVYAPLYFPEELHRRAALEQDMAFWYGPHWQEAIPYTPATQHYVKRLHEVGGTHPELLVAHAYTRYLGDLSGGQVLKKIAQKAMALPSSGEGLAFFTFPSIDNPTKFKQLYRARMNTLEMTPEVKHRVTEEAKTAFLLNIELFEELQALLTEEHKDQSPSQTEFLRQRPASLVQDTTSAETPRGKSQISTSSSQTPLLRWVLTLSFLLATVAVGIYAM
Protocol: as §1, §2, §3, §4

[1] = IC50 HO-2 (rat brain)/μM), average ± SD of replicate experiments
[2] = IC50 HO-1 (rat spleen/μM), average ± SD of replicate experiments
[3] = CO formation from methemalbumin, mean ± SD of replicate experiments, read-out: IC50 HO-2 (rat brain)/μM)
[4] = CO formation from methemalbumin, mean ± SD of replicate experiments, read-out: IC50 HO-1 (rat spleen/μM)
[5] = IC50 HO-2 (rat brain)/μM), CO formation from methemalbumin, mean ± SD of replicate experiments
[6] = IC50 HO-1 (rat spleen/μM), CO formation from methemalbumin, mean ± SD of replicate experiments
[7] = average ± SD of replicate experiments, read-out: IC50 HO-2 (rat brain)/μM)
[8] = average ± SD of replicate experiments, read-out: IC50 HO-1 (rat spleen/μM)

| Molecule | IC50 (HO-2 (rat brain); [3]) [µM] | IC50 (HO-1 (rat spleen); [4]) [µM] | further results |
| --- | --- | --- | --- |
| O=C(Cn1ccnc1)c1ccccc1 [QC-141, 2-Imidazol-1-yl-1-phenyl-ethanone hydrochloride] |  |  | IC50 (HO-2 (rat brain); [1]): > 100 µM; IC50 (HO-1 (rat spleen); [2]): 28 ± 4 µM |
| COC(=O)c1ncnn1CC(=O)CCc1ccccc1 [QC-136, 2-(2-Oxo-4-phenyl-butyl)-2H-[1,2,4]triazole-3-carboxylic acid methyl ester] | > 100 | > 100 |  |
| COc1ccc(CCC(O)Cn2ccnc2)cc1 (centres unmarked) [QC-33, 4-(4-methoxyphenyl)-1-(1H-imidazol-1-yl)butan-2-ol hydrochloride] |  |  | IC50 (HO-2 (rat brain); [5]): 6 ± 4 µM; IC50 (HO-1 (rat spleen); [6]): 0.7 ± 0.1 µM |
| NCCc1c[nH]cn1 [QC-67, Histamine dihydrochloride, reference compound] | > 100 | > 100 |  |
| c1c[nH]cn1 [QC-43, Imidazole, reference compound] |  |  | IC50 (HO-2 (rat brain); [5]): > 100 µM; IC50 (HO-1 (rat spleen); [6]): > 100 µM |
| COc1ccc(CCC(=O)Cn2ccnc2)cc1 [QC-72, 1-(1H-imidazol-1-yl)-4-(4-methoxyphenyl)-2-butanone hydrochloride] |  |  | IC50 (HO-2 (rat brain); [5]): 29 ± 19 µM; IC50 (HO-1 (rat spleen); [6]): 2.2 ± 0.9 µM |
| O=C(CCc1ccccc1)C[n+]1ccncc1 [QC-97, 1-(4-phenyl-2-oxo-butyl)-pyrazin-1-ium bromide] | > 100 | 163 ± 10 |  |
| COc1cccc(-c2nnn[nH]2)c1 [QC-28, 5-(3-methoxyphenyl)-1H-tetrazole] | > 100 | > 100 |  |
| O=C(CCc1ccc(Br)cc1)Cn1cnc2ccccc21 [QC-62, 4-(4-bromophenyl)-1-(1H-benzimidazol-1-yl)butan-2-one hydrochloride] |  |  | IC50 (HO-2 (rat brain); [5]): > 100 µM; IC50 (HO-1 (rat spleen); [6]): > 100 µM |
| CC(=O)NCCc1c[nH]cn1 [QC-138, N-[2-(1H-Imidazol-4-yl)-ethyl]-acetamide] | > 100 | > 100 |  |
| O=C(CCc1ccccc1)Cn1cnc(-c2ccccc2)c1 [QC-124, 4-Phenyl-1-(4-phenyl-imidazol-1-yl)-butan-2-one hydrochloride] | 145 ± 54 | 9 ± 2 |  |
| N[C@@H](Cc1c[nH]cn1)C(=O)O [QC-68, L-histidine hydrochloride monohydrate, reference compound] | > 100 | > 100 |  |
| O=C(NCCCn1ccnc1)c1ccccc1 [QC-109, N-(3-Imidazol-1-yl-propyl)-benzamide] | > 100 | > 100 |  |
| O=C(NCCCn1ccnc1)Nc1ccccc1 [QC-107, 1-(3-Imidazol-1-yl-propyl)-3-phenyl-urea] | > 100 | > 100 |  |
| O=C(CCn1ccnc1)c1ccc(Cl)cc1 [QC-85, 1-(4-chlorophenyl)-3-imidazol-1-yl-propan-1-one hydrochloride] |  |  | IC50 (HO-2 (rat brain); [5]): > 100 µM; IC50 (HO-1 (rat spleen); [6]): 32 ± 3 µM |
| c1ccc(C2(Cn3cncn3)OCCO2)cc1 [QC-254, 1-(2-Phenyl-[1,3]dioxolan-2-ylmethyl-1H-[1,2,4]triazole hydrochloride] |  |  | IC50 (HO-2 (rat brain); [1]): > 100 µM; IC50 (HO-1 (rat spleen); [2]): 144 ± 15 µM |
| O=C(Cn1ccnc1)c1ccc([N+](=O)[O-])cc1 [QC-159, 2-Imidazol-1-yl-1-(4-nitro-phenyl)-ethanone hydrochloride] |  |  | IC50 (HO-2 (rat brain); [1]): > 100 µM; IC50 (HO-1 (rat spleen); [2]): 2.5 ± 0.2 µM |
| Cc1ccc(C(=O)Cn2ccnc2)cc1 [QC-165, 2-Imidazol-1-yl-1-p-tolyl-ethanone hydrochloride] |  |  | IC50 (HO-2 (rat brain); [1]): 69 ± 16 µM; IC50 (HO-1 (rat spleen); [2]): 17 ± 4 µM |
| O=C(O)Cn1ccnc1 [QC-66, Imidazol-1-yl-acetic acid] | > 100 | > 100 |  |
| O=C(Cn1ccnc1)c1ccc2ccccc2c1 [QC-162, 2-Imidazol-1-yl-1-napthalen-2-yl-ethanone hydrochloride] |  |  | IC50 (HO-2 (rat brain); [7]): 12 ± 0.05 µM; IC50 (HO-1 (rat spleen); [8]): 1.9 ± 0.1 µM |

| Molecule | IC50 (HO-2 (rat brain); [3]) [µM] | IC50 (HO-1 (rat spleen); [4]) [µM] | further results |
| --- | --- | --- | --- |
| CCOC(=O)Cc1nnn(CC(=O)CCc2ccccc2)n1 [QC-178, [2-(2-Oxo-4-phenyl-butyl)-2H-tetrazol-5-yl]-acetic acid ethyl ester] |  |  | IC50 (HO-2 (rat brain); [7]): > 100 µM; IC50 (HO-1 (rat spleen); [8]): > 100 µM |
| O=C(Cn1ccnc1)c1ccc(-c2ccccc2)cc1 [QC-166, 1-Biphenyl-4-yl-2-imidazol-1-yl-ethanone hydrochloride] |  |  | IC50 (HO-2 (rat brain); [1]): 3 ± 0.7 µM; IC50 (HO-1 (rat spleen); [2]): 2.1 ± 0.7 µM |
| CSc1nccn1CC(=O)CCc1ccccc1 [QC-113, 1-(2-Methylsulfanyl-imidazol-1-yl)-4-phenyl-butan-2-one] | > 100 | > 100 |  |
| O=C(CCc1ccccc1)Cn1cnc([N+](=O)[O-])n1 [QC-152, 1-(3-Nitro-[1,2,4]triazol-1-yl)-4-phenyl-butan-2-one] |  |  | IC50 (HO-2 (rat brain); [7]): > 100 µM; IC50 (HO-1 (rat spleen); [8]): > 100 µM |
| Brc1ccc(CCCCn2ccnc2)cc1 [QC-199, 1-[4-(4-Bromo-phenyl)-butyl]-1H-imidazole hydrochloride] |  |  | IC50 (HO-2 (rat brain); [1]): 6.7 ± 0.3 µM; IC50 (HO-1 (rat spleen); [2]): 0.25 ± 0.02 µM |
| Nc1cc(Cl)ccc1-c1nnn[nH]1 [QC-29, 5-(2-amino-4-chlorophenyl)-1H-tetrazole] | > 100 | > 100 |  |
| (2R,4R)-2-[2-(4-phenyl)ethyl]-2-[(1H-imidazol-1-yl)methyl]-4-methyl-1,3-dioxolane hydrochloride [QC-35] | > 43 | 2 ± 1 |  |
| N#CSC[C@@H]1CO[C@@](CCc2ccc(Cl)cc2)(Cn2ccnc2)O1 [QC-197, 1-{2-[2-(4-Chloro-phenyl)-ethyl]-4-thiocyanatomethyl-[1,3]dioxolan-2-ylmethyl}-1H-imidazole hydrochloride] |  |  | IC50 (HO-2 (rat brain); [1]): > 100 µM; IC50 (HO-1 (rat spleen); [2]): 3 ± 0.9 µM |
| CCCCn1ccnc1 [QC-122, 1-Butyl-1H-imidazole] | > 100 | > 100 |  |
| Clc1ccc(CCC2(Cn3ccnc3)OCCCO2)cc1 [QC-70, 2-[2-(4-chlorophenyl)ethyl]-2-[(1H-imidazol-1-yl)methyl]-1,3-dioxane hydrochloride] |  |  | IC50 (HO-2 (rat brain); [5]): > 100 µM; IC50 (HO-1 (rat spleen); [6]): 20 ± 4 µM |
| O=C(c1ccc(-n2ccnc2)cc1)C1CC1 [QC-98, Cyclopropyl-(4-imidazol-1-yl-phenyl)methanone hydrochloride] | > 100 | > 100 |  |
| O=C(CCn1ccnc1)c1ccccc1 [QC-242, 3-(1H-Imidazol-1-yl)-1-phenyl-propan-1-one hydrochloride] |  |  | IC50 (HO-2 (rat brain); [1]): > 100 µM; IC50 (HO-1 (rat spleen); [2]): 79 µM |
| O=C(n1ccnc1)C(F)(F)F [QC-77, N-trifluoroacetylimidazole] | > 100 | > 100 |  |
| Clc1ccc(CCC2(Cn3ccnc3)O[C@H]3CCCC[C@H]3O2)cc1 (some centres unmarked) [QC-71, 1-{2-[2-(4-Chlorophenyl)-ethyl]-hexahydrobenzo[1,3]dioxol-2-ylmethyl}-1H-imidazole] |  |  | IC50 (HO-2 (rat brain); [5]): > 100 µM; IC50 (HO-1 (rat spleen); [6]): 69 ± 7 µM |
| CCC(COC(C)=O)n1ccnc1 (centres unmarked) [QC-36, 1-acetoxy-2-(1H-imidazol-1-yl)-butane] | > 100 | > 100 |  |
| Cc1nccn1CC(=O)CCc1ccc(Br)cc1 [QC-61, 4-(4-bromophenyl)-1-[(2-methyl)-1H-imidazol-1-yl]butan-2-one hydrochloride] |  |  | IC50 (HO-2 (rat brain); [5]): > 100 µM; IC50 (HO-1 (rat spleen); [6]): > 100 µM |
| O=C(CCc1ccccc1)Cn1nnc2ccccc21 [QC-131, 1-Benzotriazol-1-yl-4-phenyl-butan-2-one] | > 100 | > 100 |  |
| O=C(CBr)CCc1ccc(Br)cc1 [QC-59, 1-bromo-4-(4-bromophenyl)butan-2-one] | 125 ± 22 | 42 ± 5 |  |
| COC(=O)c1cn(CC(=O)CCc2ccccc2)cn1 [QC-133, 1-(2-Oxo-4-phenyl-butyl)-1H-imidazole-4-carboxylic acid methyl ester] | > 100 | > 100 |  |
| O=C(CCc1ccccc1)Cn1ncnn1 [QC-117, 4-Phenyl-1-tetrazol-2-yl-butan-2-one hydrochloride] | 37 ± 25 |  | IC50 (HO-1 (rat spleen); [6]): 9.6 ± 0.2 µM |
